As a reminder, the IC50 is the concentration that gives 50% inhibition. Read a high IC50 as lower potency.

Bounds are passed on as bounds.

One experiment concerns the target T1, TLR3 (Homo sapiens, UniProt O15455).
T1 construct: purchased R &D
T1 sequence (O15455 24-904): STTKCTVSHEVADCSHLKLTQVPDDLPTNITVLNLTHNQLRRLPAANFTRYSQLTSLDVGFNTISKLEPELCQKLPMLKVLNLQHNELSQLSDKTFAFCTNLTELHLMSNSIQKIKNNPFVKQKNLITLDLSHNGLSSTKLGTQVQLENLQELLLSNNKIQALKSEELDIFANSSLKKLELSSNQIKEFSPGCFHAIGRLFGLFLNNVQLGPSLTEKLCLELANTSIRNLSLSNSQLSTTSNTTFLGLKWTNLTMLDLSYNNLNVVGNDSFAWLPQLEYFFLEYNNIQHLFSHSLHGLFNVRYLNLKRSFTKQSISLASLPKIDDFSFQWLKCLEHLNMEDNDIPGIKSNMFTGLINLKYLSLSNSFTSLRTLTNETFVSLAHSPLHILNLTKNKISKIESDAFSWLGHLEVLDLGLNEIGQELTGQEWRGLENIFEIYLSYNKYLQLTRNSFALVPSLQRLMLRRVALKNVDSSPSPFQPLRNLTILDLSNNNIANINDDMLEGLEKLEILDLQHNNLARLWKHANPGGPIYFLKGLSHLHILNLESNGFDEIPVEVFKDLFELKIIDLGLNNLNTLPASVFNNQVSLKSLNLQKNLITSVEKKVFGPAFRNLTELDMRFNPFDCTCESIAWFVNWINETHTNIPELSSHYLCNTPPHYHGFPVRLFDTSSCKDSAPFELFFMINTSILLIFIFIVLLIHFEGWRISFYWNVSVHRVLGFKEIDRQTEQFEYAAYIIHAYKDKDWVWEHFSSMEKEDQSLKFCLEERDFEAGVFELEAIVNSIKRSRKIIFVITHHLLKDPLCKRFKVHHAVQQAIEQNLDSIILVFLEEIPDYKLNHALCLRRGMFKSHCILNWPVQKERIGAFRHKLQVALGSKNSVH
Briefly: Fluorescence anisotropy assay, competition with Rhodamine labeled Poly IC. The format is binding.
Conditions: not given
The procedure: The anisotropy of Rhodamine labeled Poly IC increased from approximately 0.116 to 0.171 upon addition of TLR3 (excitation=546 nm; emission=576 nm).
In 500 μL Tris buffer (pH=7.2) add 5 μL (1 μg/mL) Rhodamine labeled Poly IC (Invivogen), test the anisotropy at excitation of 546 nm and emission of 576 nm (Horiba Fluorolog 3). An addition 3 μL (20 μM) of TLR3 (R &D) was added in the buffer, then test the anisotropy again. Following, 4a was added in the buffer from 0 to 68 μM, and the fluorescence anisotropy was tested when the concentration was changed.
For orientation: Polarisation of emitted light reports the rotation of a fluorescent probe.
On to `O=C(N[C@H](Cc1ccccc1)C(=O)O)c1cc2ccccc2s1` [Compound 1a, (R)-2-(benzo[b]thiophene-2-carboxamido)-3-phenylpropanoic acid], for which the “TLR3 binding competition with dsRNA” value is “does not show any significant binding to TLR3”.

The target in the next experiment is T2, TLR3 (Mus musculus, UniProt Q99MB1).
T2 construct: endogenous in cells; host or cells: RAW 264.7
T2 sequence (Q99MB1 26-905): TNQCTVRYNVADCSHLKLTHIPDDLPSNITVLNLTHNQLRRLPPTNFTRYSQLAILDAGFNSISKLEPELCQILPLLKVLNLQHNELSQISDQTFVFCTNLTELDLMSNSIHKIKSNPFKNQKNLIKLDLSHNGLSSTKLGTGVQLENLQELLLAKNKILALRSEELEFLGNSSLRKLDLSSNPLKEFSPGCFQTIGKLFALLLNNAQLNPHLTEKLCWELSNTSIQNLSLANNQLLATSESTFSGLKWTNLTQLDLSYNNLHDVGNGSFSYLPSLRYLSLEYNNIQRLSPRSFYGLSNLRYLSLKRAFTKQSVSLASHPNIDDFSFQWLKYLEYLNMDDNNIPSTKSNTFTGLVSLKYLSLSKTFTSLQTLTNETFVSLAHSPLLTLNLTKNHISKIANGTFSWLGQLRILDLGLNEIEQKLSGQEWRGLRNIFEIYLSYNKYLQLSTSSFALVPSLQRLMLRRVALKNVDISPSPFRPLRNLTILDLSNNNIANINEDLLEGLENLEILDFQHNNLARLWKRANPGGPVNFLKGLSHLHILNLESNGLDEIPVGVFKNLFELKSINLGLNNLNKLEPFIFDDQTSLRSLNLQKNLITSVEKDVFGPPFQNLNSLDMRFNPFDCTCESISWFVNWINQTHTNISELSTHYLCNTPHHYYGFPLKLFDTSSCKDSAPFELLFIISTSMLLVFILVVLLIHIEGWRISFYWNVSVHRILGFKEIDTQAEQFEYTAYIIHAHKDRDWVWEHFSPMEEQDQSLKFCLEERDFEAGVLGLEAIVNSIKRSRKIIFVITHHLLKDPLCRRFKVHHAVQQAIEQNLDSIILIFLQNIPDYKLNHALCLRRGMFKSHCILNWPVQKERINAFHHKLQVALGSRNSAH
Briefly: In vitro TLR3 inhibition assay: Poly IC-induced NO production in RAW 264.7 cells. The class given is cell-based. Particulars: Poly IC-induced TLR3 activation, cell assay. The text has this:
The initial hits (Figure A) were first evaluated using the present inventors' previously established high-throughput cell assay of TLR3 activation. See, for example, ACS Med. Chem. Lett. 2010, 1, 194 and Bioorg. Med. Chem. Lett., 2010, 20, 5411. Poly IC (Polyriboinosinic:polyribocytidylic acid) has been reported to selectively activate TLR3 signaling, resulting in the activation of nitric oxide synthase and the production nitric oxide (NO) in RAW 264.7 macrophage cells. The NO level was monitored as an indicator of Poly IC-induced TLR3 activation to evaluate the drug's inhibitory activity.
RAW 264.7 (Mouse leukaemic monocyte macrophage cell line) cells were grown in RPMI 1640 medium, supplemented with 10% FBS, penicillin (100 U/mL) and streptomycin ([…]). RAW cells were then planted in 96-well plates at 100,000 cells per well and grown for 24 h in the media descried previously at 37° C. in a 5% CO2 humidified incubator. After 24 h, non-adherent cells and media were removed and replaced with fresh RPMI 1640 medium (only RPMI). The adherent macrophages were treated with high molecular weight polyinosine-polycytidylic acid (Poly IC) (10 μg/mL) (Invivogen), an agonist of TLR3, and then added different concentrates of potential inhibitor. Two rows were only treated with Poly IC as an control. Plates were then incubated for an additional 24 h. Following incubation 100 μL of media was removed and added to flat black 96-well microfluor plates (Thermo Scientific, MA, USA). To each well, 10 μL of 2,3-diaminonaphthalene (0.05 mg/mL in 0.62 M aqueous HCl solution) was added and incubated for 15 min in the dark. The reaction was quenched by addition of 5 μL of a 3 M aqueous NaOH solution and the plate was read on Beckman Coulter DTX880 reader (Beckman Coulter, Calif., USA) with excitation at 365 nm and emission at 450 nm. The nitrite (a stable metabolite of nitric oxide) concentration was determined from a nitrite standard curve. The inhibition rate (%) of NO release was determined using the following formula: Inhibition (%)=[Poly IC(OD450)−Compounds (OD450)]/[Poly IC(OD450)−Control (OD450)]×100. The IC50 values for both inhibition and cytotoxicity were determined graphically using software Origin v7.5.
In turn, `O=C(O)[C@@H](Cc1ccccc1)NS(=O)(=O)c1ccccc1F` [Compound T5260630, reference compound] yielded an IC50 of 145 ± 3.7 µM. On the same count and under the same terms, the result for `O=C(N[C@H](Cc1ccccc1)C(=O)O)c1cc2c(s1)CCCCC2` [Compound T5626448, reference compound] reads 154 ± 5.9 µM.

Staying with this experiment, now noted: whole cell inhibitory activity; Poly IC-induced NO, RAW 264.7; average ± SD, at least three independent tests.
In turn, `O=C(N[C@H](Cc1ccccc1)C(=O)O)c1cc2ccccc2s1` [Compound 1a, (R)-2-(benzo[b]thiophene-2-carboxamido)-3-phenylpropanoic acid] returned an IC50 above 155 µM.

Consider `O=C(N[C@H](Cc1ccccc1)C(=O)O)c1cc2cc(F)ccc2s1` [Compound 10a, (R)-2-(5-fluorobenzo[b]thiophene-2-carboxamido)-3-phenylpropanoic acid], for which the IC50 is above 100 µM. On the same count and under the same terms, to `O=C(N[C@@H](Cc1ccccc1)C(=O)O)c1cc2cc(F)ccc2s1` [Compound 10b, (S)-2-(5-fluorobenzo[b]thiophene-2-carboxamido)-3-phenylpropanoic acid] belongs above 100 µM. Still for that read-out and setting: to `O=C(N[C@H](Cc1ccccc1)C(=O)O)c1sc2ccccc2c1Cl` [Compound 11a, (R)-2-(3-chlorobenzo[b]thiophene-2-carboxamido)-3-phenylpropanoic acid] belongs above 100 µM; to `O=C(N[C@@H](Cc1ccccc1)C(=O)O)c1sc2ccccc2c1Cl` [Compound 11b, (S)-2-(3-chlorobenzo[b]thiophene-2-carboxamido)-3-phenylpropanoic acid], above 100 µM; to `O=C(N[C@H](Cc1ccccc1)C(=O)O)c1sc2ccc(F)cc2c1Cl` [Compound 12a, (R)-2-(3-chloro-5-fluorobenzo[b]thiophene-2-carboxamido)-3-phenylpropanoic acid], 47.3 ± 4.1 µM. `O=C(N[C@@H](Cc1ccccc1)C(=O)O)c1sc2ccc(F)cc2c1Cl` [Compound 12b, (S)-2-(3-chloro-5-fluorobenzo[b]thiophene-2-carboxamido)-3-phenylpropanoic acid] registered an IC50 of 54.1 ± 5.7 µM. Still for that read-out and setting: to `O=C(N[C@H](Cc1ccccc1)C(=O)O)c1cc2ccc(F)cc2s1` [Compound 13a, (R)-2-(6-fluorobenzo[b]thiophene-2-carboxamido)-3-phenylpropanoic acid] belongs above 100 µM.

In turn, `O=C(N[C@@H](Cc1ccccc1)C(=O)O)c1cc2ccc(F)cc2s1` [Compound 13b, (S)-2-(6-fluorobenzo[b]thiophene-2-carboxamido)-3-phenylpropanoic acid] had an IC50 above 100 µM. Same read-out and setting: the result for `O=C(O)[C@@H](Cc1ccccc1)NS(=O)(=O)c1ccccc1F` [Compound T5260630, reference compound] reads 145 ± 4 µM.

`O=C(N[C@H](Cc1ccccc1)C(=O)O)c1cc2c(s1)CCCCC2` [Compound T5626448, reference compound] displayed an IC50 of 154 ± 6 µM.

The experiment is the same for the next values; noted with them: whole cell inhibitory activity; second part of Table 1 (R5/R6 series).
The compound `O=C(O)[C@@H](Cc1ccccc1)NS(=O)(=O)c1ccccc1F` [Compound 14a, (R)-2-(2-fluorophenylsulfonamido)-3-phenylpropanoic acid] registered an IC50 above 100 µM. Same read-out and setting: the result for `O=C(O)[C@H](Cc1ccccc1)NS(=O)(=O)c1ccccc1F` [Compound 14b, (S)-2-(2-fluorophenylsulfonamido)-3-phenylpropanoic acid] reads above 100 µM; that for `O=C(O)[C@@H](Cc1ccccc1)NS(=O)(=O)c1cccc(F)c1` [Compound 15a, (R)-2-(3-fluorophenylsulfonamido)-3-phenylpropanoic acid], above 100 µM. The same measure, in the same setting: to `O=C(O)[C@H](Cc1ccccc1)NS(=O)(=O)c1cccc(F)c1` [Compound 15b, (S)-2-(3-fluorophenylsulfonamido)-3-phenylpropanoic acid] belongs above 100 µM; to `O=C(O)[C@@H](Cc1ccccc1)NS(=O)(=O)c1ccc(F)cc1` [Compound 16a, (R)-2-(4-fluorophenylsulfonamido)-3-phenylpropanoic acid], above 100 µM. Still for that read-out and setting: to `O=C(O)[C@H](Cc1ccccc1)NS(=O)(=O)c1ccc(F)cc1` [Compound 16b, (S)-2-(4-fluorophenylsulfonamido)-3-phenylpropanoic acid] belongs above 100 µM. Regarding `O=C(O)[C@@H](Cc1ccc(O)cc1)NS(=O)(=O)c1ccccc1F` [Compound 17a, (R)-2-(2-fluorophenylsulfonamido)-3-(4-hydroxyphenyl)propanoic acid], the IC50 is above 100 µM. Same read-out and setting: the result for `O=C(O)[C@H](Cc1ccc(O)cc1)NS(=O)(=O)c1ccccc1F` [Compound 17b, (S)-2-(2-fluorophenylsulfonamido)-3-(4-hyroxyphenyl)propanoic acid] reads above 100 µM; that for `O=C(O)[C@@H](Cc1ccc(O)cc1)NS(=O)(=O)c1cccc(F)c1` [Compound 18a, (R)-2-(3-fluorophenylsulfonamido)-3-(4-hydroxyphenyl)propanoic acid], above 100 µM.

Compound `O=C(O)[C@H](Cc1ccc(O)cc1)NS(=O)(=O)c1cccc(F)c1` [Compound 18b, (S)-2-(3-fluorophenylsulfonamido)-3-(4-hydroxyphenyl)propanoic acid] showed an IC50 above 100 µM. `O=C(O)[C@@H](Cc1ccc(O)cc1)NS(=O)(=O)c1ccc(F)cc1` [Compound 19a, (R)-2-(4-fluorophenylsulfonamido)-3-(4-hydroxyphenyl)propanoic acid]: the IC50 was above 100 µM.

Consider `O=C(O)[C@H](Cc1ccc(O)cc1)NS(=O)(=O)c1ccc(F)cc1` [Compound 19b, (S)-2-(4-fluorophenylsulfonamido)-3-(4-hydroxyphenyl)propanoic acid], for which the IC50 was above 100 µM.

The values above are taken from patent US9409880B2, “Modulators of TLR3/dsRNA complex and uses thereof” (The Regents of the University of Colorado, a body corporate, priority 2011, dated 2016).
